PubChem BioAssay (NCI)
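The compound was tested at five concentrations on cells cultured in 96-well plates, with a 48-hour exposure period. Abbreviation: GI50, concentration required for 50% inhibition of growth. TGI marks complete inhibition of growth.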

Experiments:
Test in all cases: inhibition of tumour cell growth, NCI panel, 48 h
PC-3 prostate = test system: PC-3 prostate
MDA-MB-435 = test system: MDA-MB-435
HOP-62 NSCLC = test system: HOP-62 NSCLC
786-0 renal = test system: 786-0 renal
OVCAR-8 ovarian = test system: OVCAR-8 ovarian
SNB-75 CNS = test system: SNB-75 CNS
OVCAR-5 ovarian = test system: OVCAR-5 ovarian
M14 melanoma = test system: M14 melanoma
NCI-H522 lung = test system: NCI-H522 lung
NCI/ADR-RES ovarian = test system: NCI/ADR-RES ovarian

| SMILES | GI50 (PC-3 prostate) | TGI (PC-3 prostate) | GI50 (MDA-MB-435) | TGI (MDA-MB-435) | GI50 (HOP-62 NSCLC) | TGI (HOP-62 NSCLC) | GI50 (786-0 renal) | TGI (786-0 renal) | GI50 (OVCAR-8 ovarian) | TGI (OVCAR-8 ovarian) | GI50 (SNB-75 CNS) | TGI (SNB-75 CNS) | GI50 (OVCAR-5 ovarian) | TGI (OVCAR-5 ovarian) | GI50 (M14 melanoma) | TGI (M14 melanoma) | GI50 (NCI-H522 lung) | TGI (NCI-H522 lung) | GI50 (NCI/ADR-RES ovarian) | TGI (NCI/ADR-RES ovarian) |
| --- | --- | --- | --- | --- | --- | --- | --- | --- | --- | --- | --- | --- | --- | --- | --- | --- | --- | --- | --- | --- |
| CC([C@H]1CCC2C3CCC4C[C@@H](N)CC[C@]4(C)C3CC[C@@]21C)N(C)C (stereo not given in full) | 8.52 µM | 33 µM | 2.26 µM | 5.27 µM | 6.1 µM | 12 µM | 4.99 µM | 11.6 µM | 15.7 µM | > 53.6 µM | 8.15 µM | 24.9 µM | 17.5 µM | 41.4 µM | 1.79 µM | 3.54 µM | 7.25 µM | 21.3 µM | 15.1 µM | 48.7 µM |
| O=C(NO)[C@@H](Cc1ccccc1)NS(=O)(=O)c1ccc(-c2ccccc2)cc1 | 7.97 µM | > 25 µM | 13.4 µM | > 25 µM | 18.1 µM | > 25 µM | 11.9 µM | > 25 µM | 22.5 µM | > 25 µM | > 25 µM | > 25 µM | 7.13 µM | > 25 µM | > 25 µM | > 25 µM | > 25 µM | > 25 µM | > 25 µM | > 25 µM |
| CO/N=C(\COc1ccc2oc(-c3ccccc3)cc(=O)c2c1)c1ccc(OC)cc1 | 29.9 µM | 98.5 µM | 15 µM | 36.9 µM | 17 µM | 33 µM | 21.9 µM | 48.9 µM | 31.8 µM | > 100 µM | 25.4 µM | 54.5 µM | 24.6 µM | 82.7 µM | 21.4 µM | 49.2 µM | 17.8 µM | 37.4 µM | 21.9 µM | 51.4 µM |
| Cc1cn2c(/C=N/N=C(N)N)c(-c3ccccn3)nc2s1 | 15.6 µM | 53.9 µM | 19 µM | 41.6 µM | 10.5 µM | 26.9 µM | 6.56 µM | 17.9 µM | 13.9 µM | > 56.2 µM | 7.66 µM | 19.3 µM | 22.3 µM | 46 µM | 19.6 µM | > 52.1 µM | 14.2 µM | 53.3 µM | > 27.1 µM | > 67.8 µM |
| Oc1c(Cl)cc(Cl)cc1C(c1cc(Cl)cc(Cl)c1O)C(Cl)(Cl)Cl | 2.19 µM | 10.9 µM | 2.13 µM | 5.12 µM | 3.77 µM | 15 µM | 2.4 µM | 7.45 µM | 3.12 µM | 15.7 µM | 3.75 µM | 17.4 µM | 3.27 µM | 14.5 µM | 3.11 µM | 10.1 µM | 0.964 µM | 26.7 µM | 1.99 µM | 7.25 µM |
